Reference: patent US7172751B2, “D-amino acid peptides” (Immunomedics, Inc., priority 2003, dated 2007)
*1 amine or outer side, *2 acyl side, *3 side chain or, on linkers, in order; H or OH if unused. Where a SMILES comes first, the peptide text is derived from it. Side-chain parts run from the residue outwards. [ ]: non-standard residue; d: D form. The star is where a group is joined. DOTA = O=C(O)CN1CCN(CC(=O)O)CCN(CC(=O)*)CCN(CC(=O)O)CC1; NH(2-(imidazol-4-yl)ethyl) = c1ncc(CCN*)[nH]1; Suc = O=C(CCC(=O)[*:2])[*:1]

Tests used:
[1] = tested on: GW-39 human colonic xenograft tumors; assay: Biodistribution of 111In IMP 237 in mice pretargeted with hMN-14×m679; format: in vivo; conditions: pretargeting
Text: The animals were sacrificed at 3, 24, 48 hr post injection. The tumor to non-tumor ratios of the peptides in the pretargeting study are show in Table 2.

[2] = Method: A mixture of the labeled peptide and mouse serum was made and incubated at 37° C. The mouse serum was fresh nude mouse serum obtained from (GSCC on the same day). The Indium-labeled peptide solution (50 μL) and 450 μL of the mouse serum were combined and vortexed. This was incubated at 37° C. for 18.0 hrs. Injections were made into the reverse phase HPLC at t0=0 hrs and t1=18.0 hrs.
Aliquots were withdrawn at various time points and examined by reverse phase HPLC and by size exclusion HPLC.
The peptide was monitored as described above by HPLC.

[3] = Pretargeting biodistribution of 111In-IMP 241, 281, 284 after 125I-hMN-14×m679; conditions: NCr nude, mouse, in vivo, total radioactivity
Text: NCr nudes: (NCI) from Taconic, 4 weeks of age
At the times shown above, 5 mice per time point will be necropsied. Tissues (tumor, liver, spleen, kidney, lungs, blood, stomach, large and small intestines) will be isolated, weighed and counted in the appropriate windows.

NC(=O)[C@H](CCCCNC(=O)CNC(=O)CCC(=O)NCCc1cnc[nH]1)NC(=O)[C@H](Cc1ccc(O)cc1)NC(=O)[C@H](CCCCNC(=O)CNC(=O)CCC(=O)NCCc1cnc[nH]1)NC(=O)[C@H](Cc1ccccc1)NC(=O)CN1CCN(CC(=O)O)CCN(CC(=O)O)CCN(CC(=O)O)CC1 [IMP 237, DOTA-Phe-Lys(HSG)-Tyr-Lys(HSG)-NH2] ({DOTA}-FK([Gly-Suc-NH(2-(imidazol-4-yl)ethyl)])YK([Gly-Suc-NH(2-(imidazol-4-yl)ethyl)])-NH2)
% Injected/g Tissue ([1]; Blood, 3 hr After 111In): 2.42 ± 0.61 % Injected/g Tissue
% Injected/g Tissue ([1]; Blood, 24 hr After 111In): 0.73 ± 0.17 % Injected/g Tissue
% Injected/g Tissue ([1]; Blood, 48 hr After 111In): 0.17 ± 0.06 % Injected/g Tissue
% Injected/g Tissue ([1]; GW-39, 3 hr After 111In): 7.25 ± 2.79 % Injected/g Tissue
% Injected/g Tissue ([1]; GW-39, 24 hr After 111In): 8.38 ± 1.70 % Injected/g Tissue
% Injected/g Tissue ([1]; GW-39, 48 hr After 111In): 5.39 ± 1.46 % Injected/g Tissue
% Injected/g Tissue ([1]; Kidney, 3 hr After 111In): 3.59 ± 0.75 % Injected/g Tissue
% Injected/g Tissue ([1]; Kidney, 24 hr After 111In): 2.24 ± 0.40 % Injected/g Tissue
% Injected/g Tissue ([1]; Kidney, 48 hr After 111In): 1.27 ± 0.33 % Injected/g Tissue
% Injected/g Tissue ([1]; Lg. Int., 24 hr After 111In): 0.17 ± 0.03 % Injected/g Tissue
% Injected/g Tissue ([1]; Lg. Int., 48 hr After 111In): 0.13 ± 0.03 % Injected/g Tissue
% Injected/g Tissue ([1]; Liver, 3 hr After 111In): 0.58 ± 0.13 % Injected/g Tissue
% Injected/g Tissue ([1]; Liver, 24 hr After 111In): 0.62 ± 0.09 % Injected/g Tissue
% Injected/g Tissue ([1]; Liver, 48 hr After 111In): 0.61 ± 0.16 % Injected/g Tissue
% Injected/g Tissue ([1]; Lungs, 3 hr After 111In): 1.19 ± 0.26 % Injected/g Tissue
% Injected/g Tissue ([1]; Lungs, 24 hr After 111In): 0.44 ± 0.10 % Injected/g Tissue
% Injected/g Tissue ([1]; Lungs, 48 hr After 111In): 0.22 ± 0.06 % Injected/g Tissue
% Injected/g Tissue ([1]; Sm. Int., 3 hr After 111In): 0.65 ± 0.74 % Injected/g Tissue
% Injected/g Tissue ([1]; Sm. Int., 24 hr After 111In): 0.18 ± 0.03 % Injected/g Tissue
% Injected/g Tissue ([1]; Sm. Int., 48 hr After 111In): 0.11 ± 0.02 % Injected/g Tissue
% Injected/g Tissue ([1]; Spleen, 3 hr After 111In): 0.50 ± 0.14 % Injected/g Tissue
% Injected/g Tissue ([1]; Spleen, 24 hr After 111In): 0.71 ± 0.16 % Injected/g Tissue
% Injected/g Tissue ([1]; Spleen, 48 hr After 111In): 0.57 ± 0.15 % Injected/g Tissue
% Injected/g Tissue ([1]; Stomach, 3 hr After 111In): 0.18 ± 0.03 % Injected/g Tissue
converted to the shorter retention time peak [2]: about 70%

NC(=O)[C@H](CCCCNC(=O)CNC(=O)CCC(=O)NCCc1cnc[nH]1)NC(=O)[C@@H](Cc1ccc(O)cc1)NC(=O)[C@H](CCCCNC(=O)CNC(=O)CCC(=O)NCCc1cnc[nH]1)NC(=O)[C@H](Cc1ccccc1)NC(=O)CN1CCN(CC(=O)O)CCN(CC(=O)O)CCN(CC(=O)O)CC1 [IMP 241, DOTA-Phe-Lys(HSG)-D-Tyr-Lys(HSG)-NH2, reference compound] ({DOTA}-FK([Gly-Suc-NH(2-(imidazol-4-yl)ethyl)])[dY]K([Gly-Suc-NH(2-(imidazol-4-yl)ethyl)])-NH2)
tissue uptake at 24 h [3]: 0.28 %ID/g
decomposed in mouse serum [2]: ~5%
